Experimental data as given in PMC11509018, “Evaluation of the Role of Tanshinone I in an In Vitro System of Charcot-Marie-Tooth Disease Type 2N” (International Journal of Molecular Sciences, 2024).
Numbering of substitutions follows the chain as printed.

Experiments:
AlaRS^R326W = molecular target: T1, AlaRS^R326W (Homo sapiens, UniProt P49588, R326W); experiment: Biolayer interferometry (BLI); assay type: binding; settings: immobilized AlaRS^R326W, mean ± SD, triplicate
T1 construct: made in house; host or cells: E. coli BL21 (DE3), pET-21a
T1 sequence (P49588 1-968 R326W): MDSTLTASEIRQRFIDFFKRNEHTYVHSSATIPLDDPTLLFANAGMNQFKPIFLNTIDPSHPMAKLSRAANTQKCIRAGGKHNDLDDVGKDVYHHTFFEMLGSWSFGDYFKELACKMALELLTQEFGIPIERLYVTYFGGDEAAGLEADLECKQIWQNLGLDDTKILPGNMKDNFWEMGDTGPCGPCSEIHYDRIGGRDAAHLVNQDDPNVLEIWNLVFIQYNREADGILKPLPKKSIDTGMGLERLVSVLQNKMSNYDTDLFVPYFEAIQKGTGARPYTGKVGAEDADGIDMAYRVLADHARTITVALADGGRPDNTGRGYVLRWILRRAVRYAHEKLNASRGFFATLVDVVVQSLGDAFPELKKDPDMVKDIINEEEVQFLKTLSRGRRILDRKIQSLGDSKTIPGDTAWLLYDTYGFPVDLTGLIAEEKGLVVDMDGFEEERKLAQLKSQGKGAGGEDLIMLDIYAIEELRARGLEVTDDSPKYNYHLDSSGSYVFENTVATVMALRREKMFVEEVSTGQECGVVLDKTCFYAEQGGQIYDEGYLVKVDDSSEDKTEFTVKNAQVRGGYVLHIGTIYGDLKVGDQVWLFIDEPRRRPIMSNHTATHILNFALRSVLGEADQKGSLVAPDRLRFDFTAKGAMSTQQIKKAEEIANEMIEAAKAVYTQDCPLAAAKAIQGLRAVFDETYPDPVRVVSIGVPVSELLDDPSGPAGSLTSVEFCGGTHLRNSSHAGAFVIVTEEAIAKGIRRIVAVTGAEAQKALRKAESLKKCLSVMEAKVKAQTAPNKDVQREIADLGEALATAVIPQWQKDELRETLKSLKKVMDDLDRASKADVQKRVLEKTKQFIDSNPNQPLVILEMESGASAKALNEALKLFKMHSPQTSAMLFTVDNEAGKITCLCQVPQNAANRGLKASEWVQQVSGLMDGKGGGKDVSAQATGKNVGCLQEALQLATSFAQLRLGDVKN
Method: (§1) Furthermore, we examined the interaction of Tanshinone I with additional AlaRS CMT mutants capable of binding to Nrp1 and causing conformational changes by BLI and proteolysis assays on additional related mutants. […] To further quantify the binding of small molecules to mutant proteins, binding experiments with AlaRS^R329H proteins and small molecules were conducted using an Octet R8 system (ForteBio, Fremont, CA, USA). Purified His-tagged AlaRS^R329H proteins (500 μg/mL) were captured on Ni-NTA biosensors (ForteBio, Fremont, CA, USA), achieving a saturation response of 4–5 nm after 300 s. The biosensors were then transferred to Octet buffer (PBS with 0.01% Tween 20) for 180 s to remove loosely bound, nonspecific proteins and to establish a stable baseline. Following this, the sensors were immersed in diluted Tanshinone I (2.5–100 μM in assay buffer) for 120 s to record the association signal, and then transferred back into Octet buffer to monitor the dissociation signal for 120 s. Reference wells containing buffer instead of Tanshinone I were included to correct for baseline shifts. Additionally, a parallel set of Ni-NTA sensors in buffer served as negative reference controls to account for nonspecific binding of the compounds to the biosensor surface. The data were processed using a double reference subtraction protocol to eliminate nonspecific signals, background noise, and signal drifts caused by biosensor variability. All assays were performed in 96-well black plates with a total volume of 200 μL per well at 30 °C. Data analysis, including correction and curve fitting, was carried out using Octet® Analysis Studio 12.2.2.26. The experiment was repeated three times.

AlaRS^E337K = molecular target: T2, AlaRS^E337K (Homo sapiens, UniProt P49588, E337K); experiment: Biolayer interferometry (BLI); assay type: binding; settings: immobilized AlaRS^E337K, mean ± SD, triplicate
T2 construct: made in house; host or cells: E. coli BL21 (DE3), pET-21a
T2 sequence (P49588 1-968 E337K): T1 sequence (P49588 1-968 R326W) with W326R, E337K
Method: as §1

Cc1coc2c1C(=O)C(=O)c1c-2ccc2c(C)cccc12 [Tanshinone I]
Kd (AlaRS^R326W): 39.6 ± 6.4 µM | Kd (AlaRS^E337K): 19.2 ± 4.2 µM
